{"source": "patent US6399568B1", "about": "“Cyclic tetrapeptide derivatives and medicinal use thereof” (Japan Energy Corporation, priority 1997, dated 2002)", "key": {"B16/BL6 cells": {"test_system": "B16/BL6 cells", "assay": "MHC class-I molecule expression promoting activity", "format": "cell-based, mouse", "details": "mean of a plurality of assays; 72 hours", "method": "The cancer cells used were mouse melanoma cells, B16/BL6 cells, provided by, the National Cancer Institute, U.S.A. Said cells were cultivated in MEM media supplemented with 10% FBS at 37° C. in the presence of 5% carbon dioxide in an humidified incubator.\nA compound to be tested was preliminarily dissolved in dimethyl sulfoxide (DMSO) and adjusted to a concentration of 100 mM or 10 mM (source solution).\nSaid B16/BL6 cells were inoculated on 96 well microplate at a cell density of 5000 cells per well, each well containing 200 μl of said medium. […] Thereafter, each well was once washed with PBS (phosphate buffered saline) and floating cells and the medium were removed. Then, the well was treated with 0.1% glutaraldehyde solution for 3 minutes to fix the cells.\nThe amount of MHC class-I molecule expressed on the surface of the fixed cells was measured by the following method. Anti-H-2K^bD^bD^d antibody, which is an antibody against mouse MHC classI molecule (commercially available from Meiji Milk Co., Ltd), was used as a primary antibody, biotinylated anti-mouse IgG+M (commercially available from Chemicon) was used as a secondary antibody, and streptavidin-β-galactosidase conjugate (commercially available from BRL) was reacted as a labelling enzyme. The amount of the thus labelled enzyme β-galactosidase was measured in a microplate reader by recording the fluorescent intensity (excitation: 365 nm, fluorescence: 450 nm) derived from the enzymaticreaction product using 4-methylumbelliferyl-β-D-galactoside (commercially available from Nacalai Tesque) as a substrate. […] The value obtained by subtracting said background level from the, actually measured value (an apparent value including the background level) was the true measurement reflecting the amount of expressed MHC class-I molecule.\nA group without the addition of any compound to be tested was used as a reference group and the measurement of MHC class-I molecule expressed in said group was used as a standard value. The amount of MHC class-I molecule expressed at a concentration of addition of each test compound is shown as a relative amount, said standard value taken as one (1). For each compound to be tested, various concentrations of addition were selected to investigate the dependency of MHC class-I molecule expression promoting action on the concentration of addition."}, "[1]": {"test_system": "mouse malignant melanoma B16 cell line", "assay": "Cell proliferation inhibition (72 hours)", "format": "cell-based", "details": "read-out: 50% proliferation inhibiting concentration B16 (nM) mean"}, "histone deacetylase": {"molecular_target": "histone deacetylase", "assay": "Histone deacetylase enzyme inhibiting activity, synthetic peptide substrate", "format": "biochemical, mouse", "details": "enzyme from B16/BL6 cells; [3H]acetylated histone H4 peptide; 37° C. 3 hours", "method_in_brief": "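Crude HDAC was partially purified from B16/BL6 cell nuclei by ammonium sulfate precipitation and gel filtration. Enzyme was incubated with [^3H]acetylated histone H4 N-terminal peptide and compound at 37° C. for 3 h. Released [^3H]acetate was ethyl acetate-extracted and counted, giving IC50 versus the no-compound control.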"}, "leukemia L1210 cell line": {"test_system": "leukemia L1210 cell line", "assay": "Cell proliferation inhibition (72 hours)", "format": "cell-based, mouse", "details": "read-out: 50% proliferation inhibiting concentration L1210 (nM) mean"}, "[2]": {"test_system": "liver cancer MH134 cell line", "assay": "Cell proliferation inhibition (72 hours)", "format": "cell-based, mouse", "details": "read-out: 50% proliferation inhibiting concentration MH134 (nM) mean"}, "[3]": {"test_system": "colon cancer Colon26 cell line", "assay": "Cell proliferation inhibition (72 hours)", "format": "cell-based, mouse", "details": "read-out: 50% proliferation inhibiting concentration Colon 26 (nM) mean"}, "[4]": {"test_system": "mouse malignant melanoma B16/BL6 cell line", "format": "cell-based", "details": "72 hours; read-out: 50% proliferation inhibiting concentration B16/BL6 (nM) mean"}}, "note": "Non-standard residues stand in square brackets, D forms with d. Residues, ends and D or L forms follow the SMILES beside them. *: point of attachment. Asu = N[C@@H](CCCCCC(=O)O)C(=O)O; NHOH = ON*"}
{"smiles": "CC[C@H](C)[C@@H]1NC(=O)[C@@H](Cc2ccc(OC)cc2)NC(=O)[C@H](CCCCCC(=O)NO)NC(=O)[C@H]2CCCN2C1=O", "note": "[HDA-31, cyclo(-L-Asu(NHOH)-D-Tyr(Me)-L-Ile-D-Pro-)] (cyclo([Asu](NHOH)[dY](Me)I[dP]))", "values": [{"measurement": "conc. for 2-fold expression (nM) mean", "setting": "B16/BL6 cells", "value": 1.41, "unit": "nM"}, {"measurement": "IC50", "setting": "[1]", "value": 44.2, "unit": "nM"}, {"measurement": "IC50", "setting": "histone deacetylase", "value": 3.32, "unit": "nM"}, {"measurement": "IC50", "setting": "leukemia L1210 cell line", "value": 18.8, "unit": "nM"}, {"measurement": "IC50", "setting": "[2]", "value": 50.7, "unit": "nM"}, {"measurement": "IC50", "setting": "[3]", "value": 33, "unit": "nM"}, {"measurement": "IC50", "setting": "[4]", "value": 5.43, "unit": "nM"}]}
